Measured values published in DBAASP.
Values after ≈ are worked out from the molar mass of the structure shown.

Assays:
Experiment in all cases: ≥ marks a high value that may be exact or a test limit, other limits are often not marked, values filed in µg/mL are converted to µM
[1] = test system: Streptococcus sanguinis NY101
[2] = test system: Streptococcus gordonii Challis DL1
[3] = test system: Streptococcus mutans UA159
Staphylococcus aureus = test system: Staphylococcus aureus
[4] = test system: Pseudomonas aeruginosa PAK
[5] = test system: Streptococcus mitis ATCC 903
[6] = test system: Bacillus subtilis ATCC 6633
[7] = test system: Escherichia coli NIHJ JC-2
Candida albicans = test system: Candida albicans
[8] = test system: Staphylococcus aureus FDA 209P JC-1
Escherichia coli JM109 = test system: Escherichia coli JM109
[9] = test system: Staphylococcus aureus ATCC 6538P
[10] = test system: Escherichia coli PCM 2057
[11] = test system: Staphylococcus aureus PCM 1944

For `CC[C@H](C)[C@H](N)C(=O)N[C@@H](CCCCN)C(=O)N[C@@H](CCC(N)=O)C(=O)N[C@@H](CC(C)C)C(=O)N[C@@H](CC(C)C)C(=O)N[C@@H](Cc1cnc[nH]1)C(=O)N[C@@H](Cc1ccccc1)C(=O)N[C@@H](Cc1ccccc1)C(=O)N[C@@H](CCC(N)=O)C(=O)N[C@@H](CCCN=C(N)N)C(=O)N[C@@H](Cc1ccccc1)C(=O)NCC(=O)NCC(=O)NCC(=O)N[C@@H](Cc1ccccc1)C(=O)N[C@H](C(=O)N[C@@H](CCCCN)C(=O)N[C@@H](Cc1cnc[nH]1)C(=O)N[C@@H](Cc1ccccc1)C(=O)N[C@H](C(=O)N[C@@H](Cc1cnc[nH]1)C(=O)N[C@@H](CCCN=C(N)N)C(=O)N[C@@H](Cc1ccccc1)C(N)=O)[C@@H](C)CC)[C@@H](C)CC` [IKQLLHFFQRFGGGFIKHFIHRF], the MIC [1] was 11.1 µM (≈ 32 µg/mL), the MIC [2] was 11.1 µM (≈ 32 µg/mL) and the MIC [3] was 2.78 µM (≈ 8 µg/mL). It also gave an MIC (Staphylococcus aureus) of 21.7 µM (≈ 62.5 µg/mL), an MIC [4] of at least 43.5 µM and an MIC [5] of 5.57 µM (≈ 16 µg/mL).
In the case of `CC[C@H](C)[C@H](NC(=O)CNC(=O)[C@H](C)NC(=O)[C@H](CC(C)C)NC(=O)[C@@H](NC(=O)[C@@H]1CCCN1C(=O)[C@H](CC(C)C)NC(=O)[C@@H](N)Cc1ccccc1)C(C)C)C(=O)N[C@@H](C)C(=O)N[C@@H](C)C(=O)N[C@@H](CCCCN)C(=O)N[C@H](C(=O)N[C@H](C(=O)N1CCC[C@H]1C(=O)N[C@@H](C)C(=O)N[C@@H](CC(C)C)C(=O)N[C@@H](Cc1ccccc1)C(=O)N[C@H]1CSSC[C@@H](C(=O)O)NC(=O)[C@H](CCCCN)NC(=O)[C@H](CCCCN)NC(=O)[C@H]([C@@H](C)O)NC(=O)[C@H]([C@@H](C)CC)NC(=O)[C@H](CCCCN)NC1=O)C(C)C)C(C)C` [FLPVLAGIAAKVVPALFCKITKKC], the MIC [6] is reported as 0.79 µM (≈ 2 µg/mL), the MIC [7] is reported as 13.4 µM (≈ 34 µg/mL) and the MIC (Candida albicans) is reported as over 51.4 µM. For the same compound, the MIC [8] was 3.16 µM (≈ 7.99 µg/mL).
For `CC[C@H](C)[C@H](NC(=O)[C@H](C)NC(=O)[C@H](CC(C)C)NC(=O)[C@H](CS)NC(=O)[C@H](Cc1cnc[nH]1)NC(=O)[C@H](C)N)C(=O)NCC(=O)N[C@@H](CCCN=C(N)N)C(=O)N[C@@H](CCCN=C(N)N)C(N)=O` [AHCLAIGRR], the MIC (Escherichia coli JM109) was 16.1 µM, the MIC (Staphylococcus aureus) was over 64.2 µM and the MIC [9] was 6.02 µM.
`CC[C@H](C)[C@H](NC(=O)[C@H](CC(N)=O)NC(=O)[C@@H](NC(=O)[C@H](C)N)C(C)C)C(=O)N1CCC[C@H]1C(=O)N[C@@H](Cc1ccccc1)C(=O)N[C@@H](CCCCN)C(=O)N[C@H](C(=O)N[C@@H](Cc1cnc[nH]1)C(=O)N[C@@H](Cc1ccccc1)C(=O)N[C@@H](CCCN=C(N)N)C(=O)O)C(C)C` [AVNIPFKVHFR] was tested, and the MIC [10] was at least 753 µM and the MIC [11] was at least 753 µM.
